From US20230248850A1, “GOLD MOLECULAR CLUSTERS AND METHODS OF USING SAME FOR NEAR-INFRARED IMAGING” (The Board of Trustees of the Leland Stanford Junior …, priority 2022, published 2023) come the findings set out here.

Series [1] in a line: Excretion by ICP-MS after intra-tumoral injection. In kind it is in vivo, mouse. Conditions: i.t. injection. The procedure: The biodistribution of probes was analyzed 10 min, 30 min, 24 h or 48 h postadministration. The urine, feces and major organs including the liver, spleen, heart, lungs, and kidneys were collected and digested in nitric acid (68%) for 12 h. Afterwards, the solutions were heated to 150° C. in the digestion solution (nitric acid:hydrogen peroxide=4:1) until transparent and colorless solution was obtained. The concentration of gold in each sample was measured by ICP-MS (Thermo Scientific ICAP 6300 Duo View Spectrometer).

Series [2] relates to serum proteins (FBS). Description: in vitro. Particulars: bovine. In kind it is in vitro ADME. The procedure: Evaluated next were the serum protein binding capabilities of Au-GSH cluster and Au-PC conjugate with FBS and compared to that of ICG. Briefly, the clusters and ICG were incubated with FBS for 1 h at 37° C. (FIG. 12). Afterwards, the solutions were filtered using Amicon 50 kDa centrifuge filters (FIGS. 12A and 12B). Au clusters bound to serum proteins will not pass filter while free unbound clusters will be lost to the filtrate. The optical density (OD) of filtrate (in case of Au-GSH and Au-PC) and retentate (in case of ICG) at 808 nm were measured and the corresponding serum protein binding efficiencies were calculated (FIG. 12C). The schematics of the experiments, figures, and absorbance values of Au-GSH+FBS and Au-PC+FBS filtrates as well as ICG+FBS retentate can be found in FIG. 12. The serum protein binding efficiencies for Au-GSH cluster, Au-PC conjugate and ICG were calculated to be 2.7%, 1.74% and 94.5%, respectively.

The test system of series [3] is Balb/c mice. The series is described as follows: In vivo NIR-II fluorescence imaging after intravenous injection. The arrangement: species or system mouse. Particulars: i.v. injection, up to 24 h p.i. The procedure:
In vivo, the Au-GSH and Au-PC clusters dissolved in PBS were first intravenously (i.v.) administered to mice (5-7 weeks old female Balb/c, n=3 in each group) through tail-vein injection, imaged in the >1100 nm NIR-II window and compared side by side with the clinically approved ICG dye. The bladder NIR-II signals in mice rapidly lit up, at ˜3 min postinjection (p.i) (FIG. 2A, 2B ventral view), as a consequence of kidney drainage for fast renal clearance (dorsal/lateral view images in FIGS. 13A and 14A, respectively).
(§1) The animal experiments and imaging in the NIR-II window were conducted in a two-dimensional, water-cooled 640×512 InGaAs array (Ninox 640, Raptor Photonics). The clusters were excited by an 808-nm continuous-wave diode laser at a power density of 70 mW/cm^2. 1100 nm long-pass filter was used in all the imaging experiments unless stated otherwise. The fluorescent probes were administered through tail vein (intravenous, i.v.), tail base (subcutaneous, s.c.) and (peri)intratumoral (i.t.). NIR-II fluorescence images were recorded at 3 min, 10 min, 30 min, 1 h, 3 h, 6 h, 24 h, 48 h p.i.

In series [4] the test system is mice bearing syngeneic 4T1 murine breast tumors. Description: NIR-II lymph node imaging after intra-/peri-tumoral injection, 4T1 tumors. The class given is in vivo, mouse. The protocol: For lymph node imaging, intra-tumor/peri-tumor administration (i.t.) of Au-PC clusters to mice (5-7 weeks old female Balb/c, n=3 in each group) bearing syngeneic 4T1 murine breast tumors and CT26 colon tumors inoculated on hindlimbs was performed. Several doses of Au-PC probes, including 4× (˜1.2 mg, tumors on both hindlimbs), 1× (˜300 μg, tumor on the right hindlimb) and ⅓× (˜100 μg, tumor on the right hindlimb) were administered (FIG. 3A, FIGS. 16 and 17). The draining inguinal lymph nodes (iLN) started to show NIR-II emission of Au-PC within ˜1 min p.i. and reached high brightness within ˜3 min p.i. (FIG. 3A, FIG. 17 for 4T1; FIG. 12A for CT26 tumor). The LN signal persisted for over 1 h in the draining iLNs (FIG. 3A) after reaching peak intensity at ˜30 min p.i., with a LN/background signal ratio ˜5-10 (FIG. 3D, FIG. 12D). […] The signal completely disappeared after […] p.i. of the Au-PC probe. The Au-PC clusters afforded rapid and effective imaging/detection of the primary tier draining LNs with much weaker signals in higher tier nodes.
3-9-week-old BALB/c female mice (weight: 15-20 g) were purchased from Charles River. The mice were housed on a 12-hour light/12-hour dark at ambient temperature =20-25° C. and humidity=50-65% in Stanford University's Veterinary Service Center. The bedding, nesting material, food and water were provided by the Stanford VSC facility. Prior to each experiment, the mice were shaved using hair-removing lotion (Nair, Softening Baby Oil). For in vivo imaging, the mice were anaesthetized by 2.5% isoflurane and oxygen as a carrying gas at a flow rate of 2 L/min. Per animal care protocols, the mice were carefully monitored during the imaging process and postrecovery period. The experimental groups consisted of n=3 mice. […]
The animal experiments and imaging in the NIR-II window were conducted in a two-dimensional, water-cooled 640×512 InGaAs array (Ninox 640, Raptor Photonics). […] NIR-II fluorescence images were recorded at 3 min, 10 min, 30 min, 1 h, 3 h, 6 h, 24 h, 48 h p.i.

For series [5], the system named is Balb/c mice. The series is described as follows: NIR-II lymph node imaging after subcutaneous injection at tail base. In kind it is in vivo, mouse. Conditions: s.c. tail base. The procedure:
Investigated next was LN draining post subcutaneous (s.c.) injection of the three probes at the mouse tail base (FIG. 5) (5-7 weeks old female Balb/c, n=3 in each group). The Au-PC clusters within 3 min p.i. migrated to the lymphatic vessels connecting the injection site to the draining iLN (FIG. 5A and FIG. 23). Strong signals in the iLN were seen up to 1 h and decreased by ˜40% 2 h p.i. (FIG. 5D). […] In contrast, upon ICG administration (FIG. 5C), the fluorescent signal in iLN appeared 3 min p.i. but with an intensity much lower compared to that of Au-PC probe at the same time postinjection (FIG. 5F). After 2-3 h p.i. (or even later) ICG signal in the iLN reached peak intensity and persisted. […] The retention of ICG at the injection site persisted over an extended period of time (FIG. 5F) much longer than Au-PC. The Au-PC molecular clusters were also unique with little retention at subcutaneous injection sites among various nanomaterials (with well-coated hydrophilic layers such as PEG) including quantum dots (QDs), carbon nanotubes (CNTs) and organic NIR II dyes^67,68. The trapping of NIR-II probes at the injection site and staining it for weeks is undesirable due to potential long-term side effects.
as §1

“Also recorded” adds a separate entry of the source.

As for `CC1(C)C(/C=C/C=C/C=C/C=C2\N(CCCCS(=O)(=O)O)c3ccc4ccccc4c3C2(C)C)=[N+](CCCCS(=O)(=O)[O-])c2ccc3ccccc3c21` [ICG, indocyanine green], the excretion route result in series [1] is given as “liver excretory system”. The fraction unbound at 1 h in series [2] is 0.055. Besides, the “NIR-II signal distribution and retention in organs” value in series [3] was “strong NIR-II signals were observed in liver and intestine; also recorded: no significant ICG retention in major organs”. Further, the “signal at tumor injection site 24 h p.i.” value in series [4] (i.t. injection) was “significant signals were still detected at the tumor injection sites”. In addition, the “time of peak lymph node intensity” value in series [4] (i.t. injection into 4T1 tumor) lay within 2 to 3 h. The “LN/background (LN/B) signal ratio” value in series [4] (i.t. injection, 4T1 tumors, at peak intensity) came out at 4. In series [5], the “signal retention at 24 h p.i.” value is “significant signal still remained in the lymph node, at the injection site and in the liver”; the “time fluorescent signal in iLN appeared” value was determined as 3 min; the “time of iLN signal peak” value lay in the range of 2 to 3 h.
